The text below walks through data of the supplement of paper PMC11208160.

The data set in a line: recombinant UMI read abundance after kanamycin selection (control-corrected) (log10(CPM+1)); higher = more efficient recombination; extreme values may be limits of the assay; sequences stand for … in AGTGCAGAGAAAATCGGCCAGTTTTCTCTGCCTGCAGTCCGCATGCCGTGGGACCCCTTGGGTTCTAACCTGTTGCCTAGATTTATGCAGCGGACTGCCTTTCTCCCAAAGTGATAAACCGG…AGGTTGGTTTCACT; site = the 11-nt donor. Summed up: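 Values, expressed as log10(CPM+1), derive from recombinant UMI counts converted to CPM, averaged across replicates and scaled by control-derived factors. Plating was with IPTG (0.07 mM) plus kanamycin or unselected, two replicates each. The screen pooled donor and donor-binding-loop pairs for the IS621 bridge recombinase in Escherichia coli.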
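Note: IS621 bridge recombinase in Escherichia coli cells against a fixed T5 target plasmid.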

Take “CCCTAGACATGGACCGGTTTTCCCGGTAATCCGTATTTGCC (site CCCTAGCCTGG)”: the “recombinant UMI read abundance (log10)” value was found to be 0.
Turning to “CCCTAGACATGGACCGGTTTTCCCGGTAATCCGTATTTGCC (site CCCTAGGCTGG)”, the “recombinant UMI read abundance (log10)” value was 1.18.
As to “CCCTAGACATGGACCGGTTTTCCCGGTAATCCGTATTTGCC (site CCCTAGTCTGG)”, the “recombinant UMI read abundance (log10)” value worked out at 0.
For “CCCTAGACATGGACCGGTTTTCCCGGTAATCCGTATTTGCT (site CCCTAGACTAG)”, the “recombinant UMI read abundance (log10)” value is 0.956.
On to “CCCTAGCCATGGACCGGTTTTCCCGGTAATCCGTATTTGAC (site CCCTAGCCTGA)”, for which the “recombinant UMI read abundance (log10)” value is 0.
“CCCTAGCCATGGACCGGTTTTCCCGGTAATCCGTATTTGAC (site CCCTAGCCTGC)”: the “recombinant UMI read abundance (log10)” value came out at 0.
With “CCCTAGCCATGGACCGGTTTTCCCGGTAATCCGTATTTGAC (site CCCTAGCCTGG)”, the “recombinant UMI read abundance (log10)” value is 0.
Take “CCCTAGCCATGGACCGGTTTTCCCGGTAATCCGTATTTGAC (site CCCTAGCCTGT)”: the “recombinant UMI read abundance (log10)” value is 0.
For “CCCTAGCCATGGACCGGTTTTCCCGGTAATCCGTATTTGCA (site CCCTAGCCTAG)”, the “recombinant UMI read abundance (log10)” value came out at 0.
The value for “CCCTAGCCATGGACCGGTTTTCCCGGTAATCCGTATTTGCA (site CCCTAGCCTCG)” was 0; that for “CCCTAGCCATGGACCGGTTTTCCCGGTAATCCGTATTTGCA (site CCCTAGCCTGG)” was 0; that for “CCCTAGCCATGGACCGGTTTTCCCGGTAATCCGTATTTGCA (site CCCTAGCCTTG)” was 0.
With “CCCTAGCCATGGACCGGTTTTCCCGGTAATCCGTATTTGCG (site CCCTAGCCTAG)”, the “recombinant UMI read abundance (log10)” value was determined as 0.
Consider “CCCTAGCCATGGACCGGTTTTCCCGGTAATCCGTATTTGCG (site CCCTAGCCTCG)”, for which the “recombinant UMI read abundance (log10)” value was 0.0131.
“CCCTAGCCATGGACCGGTTTTCCCGGTAATCCGTATTTGCG (site CCCTAGCCTGG)”: the “recombinant UMI read abundance (log10)” value came out at 0.
Turning to “CCCTAGCCATGGACCGGTTTTCCCGGTAATCCGTATTTGCG (site CCCTAGCCTTG)”, the “recombinant UMI read abundance (log10)” value came out at 0.
In the case of “CCCTAGCCATGGACCGGTTTTCCCGGTAATCCGTATTTGCT (site CCCTAGCCTAG)”, the “recombinant UMI read abundance (log10)” value worked out at 0.
As to “CCCTAGCCATGGACCGGTTTTCCCGGTAATCCGTATTTGCT (site CCCTAGCCTCG)”, the “recombinant UMI read abundance (log10)” value was found to be 0.
As to “CCCTAGCCATGGACCGGTTTTCCCGGTAATCCGTATTTGCT (site CCCTAGCCTGG)”, the “recombinant UMI read abundance (log10)” value turned out to be 0.
For the sequence “CCCTAGCCATGGACCGGTTTTCCCGGTAATCCGTATTTGCT (site CCCTAGCCTTG)”, the “recombinant UMI read abundance (log10)” value was determined as 0.
Regarding “CCCTCAACATGGACCGGTTTTCCCGGTAATCCGTATTTGAT (site CCCTCAACTAT)”, the “recombinant UMI read abundance (log10)” value was found to be 0.00694.
“CCCTCAACATGGACCGGTTTTCCCGGTAATCCGTATTTGGG (site CCCTCAACTCC)”: the “recombinant UMI read abundance (log10)” value amounted to 0.0112.
For the sequence “CCCTCCTCATGGACCGGTTTTCCCGGTAATCCGTATTTGAG (site CCCTCCTCTCT)”, the “recombinant UMI read abundance (log10)” value was determined as 0.256.
As to “CCCTCCTCATGGACCGGTTTTCCCGGTAATCCGTATTTGGG (site CCCTACTCTCC)”, the “recombinant UMI read abundance (log10)” value amounted to 0.0129.
Take “CCCTCCTCATGGACCGGTTTTCCCGGTAATCCGTATTTGGG (site CCCTCCTCTCC)”: the “recombinant UMI read abundance (log10)” value was 0.487.
As to “CCCTCCTCATGGACCGGTTTTCCCGGTAATCCGTATTTGGG (site CCCTGCTCTCC)”, the “recombinant UMI read abundance (log10)” value worked out at 0.
As to “CCCTCCTCATGGACCGGTTTTCCCGGTAATCCGTATTTGGG (site CCCTTCTCTCC)”, the “recombinant UMI read abundance (log10)” value is 0.00367.
With “CCCTGATCATGGACCGGTTTTCCCGGTAATCCGTATTTGAG (site CCCTGATCTCT)”, the “recombinant UMI read abundance (log10)” value turned out to be 0.248.
Take “CCCTTATCATGGACCGGTTTTCCCGGTAATCCGTATTTGGG (site CCCTTATCTCC)”: the “recombinant UMI read abundance (log10)” value turned out to be 0.162.
With “CCCTTATCATGGACCGGTTTTCCCGGTAATCCGTATTTGGG (site CCCTTCTCTCC)”, the “recombinant UMI read abundance (log10)” value was determined as 0.0199.
For the sequence “CCCTTATCATGGACCGGTTTTCCCGGTAATCCGTATTTGGG (site CCCTTGTCTCC)”, the “recombinant UMI read abundance (log10)” value turned out to be 0.0199.
Turning to “CCCTTATCATGGACCGGTTTTCCCGGTAATCCGTATTTGGG (site CCCTTTTCTCC)”, the “recombinant UMI read abundance (log10)” value is 0.
“CCCTTCTCATGGACCGGTTTTCCCGGTAATCCGTATTTGGT (site CCCTTCTCTAC)”: the “recombinant UMI read abundance (log10)” value was found to be 1.32.
On to “CCCTTCTCATGGACCGGTTTTCCCGGTAATCCGTATTTGGT (site CCCTTCTCTCC)”, for which the “recombinant UMI read abundance (log10)” value was determined as 0.182.
“CCCTTCTCATGGACCGGTTTTCCCGGTAATCCGTATTTGGT (site CCCTTCTCTGC)”: the “recombinant UMI read abundance (log10)” value was found to be 0.
Regarding “CCCTTCTCATGGACCGGTTTTCCCGGTAATCCGTATTTGGT (site CCCTTCTCTTC)”, the “recombinant UMI read abundance (log10)” value turned out to be 0.121.
Then “CCCTTGGCATGGACCGGTTTTCCCGGTAATCCGTATTTGGA (site CACTTGGCTTC)”, with 0.0394; and “CCCTTGGCATGGACCGGTTTTCCCGGTAATCCGTATTTGGA (site CCCTTGGCTTC)”, with 0.107.
With “CCCTTGGCATGGACCGGTTTTCCCGGTAATCCGTATTTGGA (site CGCTTGGCTTC)”, the “recombinant UMI read abundance (log10)” value came out at 0.0127.
With “CCCTTGGCATGGACCGGTTTTCCCGGTAATCCGTATTTGGA (site CTCTTGGCTTC)”, the “recombinant UMI read abundance (log10)” value worked out at 0.00833.
For “CCGAAAACATGGACCGGTTTTCCCGGTAATCCGTATTTGCT (site ACGAAAACTAG)”, the “recombinant UMI read abundance (log10)” value came to 0.
For “CCGAAAACATGGACCGGTTTTCCCGGTAATCCGTATTTGCT (site CCGAAAACTAG)”, the “recombinant UMI read abundance (log10)” value was 0.973.
Consider “CCGAAAACATGGACCGGTTTTCCCGGTAATCCGTATTTGCT (site GCGAAAACTAG)”, for which the “recombinant UMI read abundance (log10)” value stood at 0.
Then “CCGAAAACATGGACCGGTTTTCCCGGTAATCCGTATTTGCT (site TCGAAAACTAG)”, with 0; and “CCGAAACCATGGACCGGTTTTCCCGGTAATCCGTATTTGCG (site CCGAAACCTCG)”, with 0; and “CCGAATCCATGGACCGGTTTTCCCGGTAATCCGTATTTGTT (site CAGAATCCTAA)”, with 0.
Regarding “CCGAATCCATGGACCGGTTTTCCCGGTAATCCGTATTTGTT (site CCGAATCCTAA)”, the “recombinant UMI read abundance (log10)” value is 0.251.
For the sequence “CCGAATCCATGGACCGGTTTTCCCGGTAATCCGTATTTGTT (site CGGAATCCTAA)”, the “recombinant UMI read abundance (log10)” value was determined as 0.
For the sequence “CCGAATCCATGGACCGGTTTTCCCGGTAATCCGTATTTGTT (site CTGAATCCTAA)”, the “recombinant UMI read abundance (log10)” value came out at 0.00536.
The value for “CCGACCGCATGGACCGGTTTTCCCGGTAATCCGTATTTGTA (site CCGACCGCTTA)” was 0.904; that for “CCGAGTCCATGGACCGGTTTTCCCGGTAATCCGTATTTGAA (site CCGAGTCCTTT)” was 0.417; that for “CCGATTACATGGACCGGTTTTCCCGGTAATCCGTATTTGCT (site CCGATTACTAG)” was 0.743.
Turning to “CCGATTACATGGACCGGTTTTCCCGGTAATCCGTATTTGCT (site CCGCTTACTAG)”, the “recombinant UMI read abundance (log10)” value was 0.
The value for “CCGATTACATGGACCGGTTTTCCCGGTAATCCGTATTTGCT (site CCGGTTACTAG)” was 0; that for “CCGATTACATGGACCGGTTTTCCCGGTAATCCGTATTTGCT (site CCGTTTACTAG)” was 0.
The value for “CCGCCACCATGGACCGGTTTTCCCGGTAATCCGTATTTGAT (site CCGCCACCTAT)” was 0.00762.
In the case of “CCGCCGACATGGACCGGTTTTCCCGGTAATCCGTATTTGTT (site CCGCCGACTAA)”, the “recombinant UMI read abundance (log10)” value amounted to 0.275.
Regarding “CCGCTACCATGGACCGGTTTTCCCGGTAATCCGTATTTGCT (site CAGCTACCTAG)”, the “recombinant UMI read abundance (log10)” value is 0.
Consider “CCGCTACCATGGACCGGTTTTCCCGGTAATCCGTATTTGCT (site CCGCTACCTAG)”, for which the “recombinant UMI read abundance (log10)” value was 0.
For “CCGCTACCATGGACCGGTTTTCCCGGTAATCCGTATTTGCT (site CGGCTACCTAG)”, the “recombinant UMI read abundance (log10)” value was 0.
As for “CCGCTACCATGGACCGGTTTTCCCGGTAATCCGTATTTGCT (site CTGCTACCTAG)”, the “recombinant UMI read abundance (log10)” value was 0.00224.
In the case of “CCGCTAGCATGGACCGGTTTTCCCGGTAATCCGTATTTGTG (site CCGATAGCTCA)”, the “recombinant UMI read abundance (log10)” value was determined as 0.0148.
In the case of “CCGCTAGCATGGACCGGTTTTCCCGGTAATCCGTATTTGTG (site CCGCTAGCTCA)”, the “recombinant UMI read abundance (log10)” value stood at 0.337.
“CCGCTAGCATGGACCGGTTTTCCCGGTAATCCGTATTTGTG (site CCGGTAGCTCA)”: the “recombinant UMI read abundance (log10)” value worked out at 0.0182.
For “CCGCTAGCATGGACCGGTTTTCCCGGTAATCCGTATTTGTG (site CCGTTAGCTCA)”, the “recombinant UMI read abundance (log10)” value turned out to be 0.
In the case of “CCGCTTACATGGACCGGTTTTCCCGGTAATCCGTATTTGCT (site CCGATTACTAG)”, the “recombinant UMI read abundance (log10)” value turned out to be 0.
For the sequence “CCGCTTACATGGACCGGTTTTCCCGGTAATCCGTATTTGCT (site CCGCTTACTAG)”, the “recombinant UMI read abundance (log10)” value stood at 1.48.
For the sequence “CCGCTTACATGGACCGGTTTTCCCGGTAATCCGTATTTGCT (site CCGGTTACTAG)”, the “recombinant UMI read abundance (log10)” value amounted to 0.
